# Experimental data taken from patent US6855325B1, “Use of hypo-osmotic saline solutions and medicine based on said solutions” (Laboratoires GOEMAR S.A., priority 1999, dated 2005).
# “Also recorded” adds a separate entry of the source.
# Assays:
# [1] = test system: normal human epidermic keratinocytes; assay: cytotoxic effect: percentage of proteins remaining in keratinocytes after 4 hours of incubation; type: cell-based; settings: 4 hours incubation
# Method: For the examination of the toxicity, normal human epidermic keratinocytes were used which were taken from epidermis samples; they consist especially in keratinocytes isolated from the remains of an operation of an abdominal plasty carried out on a person (patient No. 10020).
# These keratinocytes were cultivated at 37° C. in a culture medium intended for keratinocytes or MCK, i.e. the one which is marketed under the designation “SFM defined-keratinocyte medium” by the company GIBCO under a humid atmosphere containing 5% of CO2 until confluence of the monolayers.
# These six products were incubated during 4 hours in the cultures of the keratinocytes.
# Before the incubation, the cells, i.e. the keratinocytes, were rinsed with the tested products in order to eliminate any trace of culture medium.
# The saline solutions J, I, H, and K and the physiological serum were used without dilution.
# The dexamethasone has been tested at 10 μM in the medium MCK.
# The cultures of keratinocytes were incubated in the presence of the six products during 4 hours at 37° C., under a humid atmosphere containing 5% of CO2.
# The control cultures, incubated in the medium MCK in the absence of the six products, were carried out in parallel.
# All these trials were carried out three times. […]
# [2] = test system: interleukine IL-8; assay: release of interleukine IL-8 in cultures of keratinocytes under the influence of MCK medium; type: cell-based, human; settings: 4 hours incubation; saline solutions and physiological serum without dilution, dexamethasone 10 μM in MCK; control MCK = 100
# From the text: Then the ability of the hypoosmotic saline solutions used according to the invention to prevent and to limit the release under the influence of certain diseases or certain pro-inflammatory agents of the chemical mediators responsible for the starting of the cutaneous inflammatory phenomena has been examined.
# The tested chemical mediator was interleukine IL-8.
# The pro-inflammatory agent was consisting of the MCK culture medium which appears to be at the origin of a strong release of interleukine IL-8 in cultures of keratinocytes.
# The procedure was similar to that used in the above disclosed tests concerning the estimation of the cytotoxicity of the various tested products.
# These products were the same.
# The duration of the incubation was also equal to 4 hours.
# Under the influence of the MCK medium, the release of interleukine IL-8 was 100 pg/mg of proteins; in that same medium determination has been carried out of the amounts of interleukine IL-8 released in the presence of the six tested products, i.e. on the one hand, the products J, I, H, K as well as physiological serum which were used without dilution and, on the other hand, dexamethasone which has been used at the rate of 10 μM in the MCK medium.
compound,measurement,setting,value
"C[C@@H]1C[C@H]2[C@@H]3CCC4=CC(=O)C=C[C@]4(C)[C@@]3(F)[C@@H](O)C[C@]2(C)[C@@]1(O)C(=O)CO [Dexamethasone, dexamethasone]",cytotoxic effect with respect to keratinocytes (in words),[1],not cytotoxic; also recorded: very few cytotoxic
same,amounts of interleukine IL-8 released,[2],74 pg of IL-8/mg of proteins
